According to PubChem BioAssay AID248 (DTP/NCI, 2004):
Inconclusive results and toxic doses are left out. No stated cut-off is given here; in the data, active means T/C of 150% or more; inactive means T/C below 125%.

Test system: L1210 leukemia ip in BDF1 mice, survival T/C
Test: NCI In Vivo Anticancer Drug Screen. Data for tumor model L1210 Leukemia (intraperitoneal) in B6D2F1 (BDF1) mice
Conditions: endpoint: mean survival time, higher = longer survival
Method in brief: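 Transplantable tumor model; survival measured in treated vs vehicle control mice. Value = treated/control.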

[1] = dose: 100.0 mg/kg/injection, schedule: Q01DX001 (ip), vehicle: saline
[2] = dose: 200.0 mg/kg/injection, schedule: Q01DX001 (ip), vehicle: saline
[3] = dose: 400.0 mg/kg/injection, schedule: Q01DX001 (ip), vehicle: saline
[4] = dose: 100.0 mg/kg/injection, schedule: Q04DX002 (ip), vehicle: Klucel (hydroxypropylcellulose) (HPC)
[5] = dose: 400.0 mg/kg/injection, schedule: Q04DX002 (ip), vehicle: saline with Tween-80
[6] = dose: 100.0 mg/kg/injection, schedule: Q01DX009 (ip), vehicle: saline with Tween-80
[7] = dose: 100.0 mg/kg/injection, schedule: Q04DX003 (ip), vehicle: saline with Tween-80
[8] = dose: 200.0 mg/kg/injection, schedule: Q01DX009 (ip), vehicle: saline with Tween-80
[9] = dose: 400.0 mg/kg/injection, schedule: Q01DX009 (ip), vehicle: saline with Tween-80
[10] = dose: 400.0 mg/kg/injection, schedule: Q04DX003 (ip), vehicle: saline with Tween-80
[11] = dose: 100.0 mg/kg/injection, schedule: Q01DX009 (ip), vehicle: Klucel (hydroxypropylcellulose) (HPC)
[12] = dose: 200.0 mg/kg/injection, schedule: Q01DX009 (ip), vehicle: Klucel (hydroxypropylcellulose) (HPC)
[13] = dose: 200.0 mg/kg/injection, schedule: Q04DX002 (ip), vehicle: Klucel (hydroxypropylcellulose) (HPC)
[14] = dose: 400.0 mg/kg/injection, schedule: Q01DX009 (ip), vehicle: Klucel (hydroxypropylcellulose) (HPC)
[15] = dose: 400.0 mg/kg/injection, schedule: Q04DX002 (ip), vehicle: Klucel (hydroxypropylcellulose) (HPC)
[16] = dose: 100.0 mg/kg/injection, schedule: Q04DX003 (ip), vehicle: Klucel (hydroxypropylcellulose) (HPC)
[17] = dose: 200.0 mg/kg/injection, schedule: Q04DX003 (ip), vehicle: Klucel (hydroxypropylcellulose) (HPC)
[18] = dose: 400.0 mg/kg/injection, schedule: Q04DX003 (ip), vehicle: Klucel (hydroxypropylcellulose) (HPC)

Measured: T/C

CC1(C)CCCC2(C)C3=C(CC4(C(C)(C)O)OC4C3=O)C(=O)CC12 (configuration not stated)
inactive: [1] 102 % of control | [2] 105 % of control | [3] 109 % of control

NC(=O)c1cccn1-c1ccc2ncccc2c1
inactive: dose: 25.0 mg/kg/injection, schedule: Q04DX002 (ip), vehicle: Klucel (hydroxypropylcellulose) (HPC) 89 % of control | dose: 50.0 mg/kg/injection, schedule: Q04DX002 (ip), vehicle: Klucel (hydroxypropylcellulose) (HPC) 92 % of control | [4] 86 % of control

c1cc[c]([Sn]([c]2ccccc2)[c]2ccccc2)cc1.c1ccc([Si](c2ccccc2)c2ccccc2)cc1
inactive: dose: 64.0 mg/kg/injection, schedule: Q04DX002 (ip), vehicle: saline with Tween-80 86 % of control | dose: 160.0 mg/kg/injection, schedule: Q04DX002 (ip), vehicle: saline with Tween-80 86 % of control | [5] 86 % of control

NC(=O)C1=C(CCCCl)c2ccccc2C1=O
inactive: dose: 50.0 mg/kg/injection, schedule: Q01DX009 (ip), vehicle: saline with Tween-80 100 % of control

CNC(=S)N/N=C(\c1ccccc1)c1ccccn1
inactive: dose: 100.0 mg/kg/injection, schedule: Q01DX001 (ip), vehicle: saline with Tween-80 95 % of control | [6] 100 % of control | [7] 104 % of control | dose: 200.0 mg/kg/injection, schedule: Q01DX001 (ip), vehicle: saline with Tween-80 106 % of control | [8] 102 % of control | dose: 200.0 mg/kg/injection, schedule: Q04DX003 (ip), vehicle: saline with Tween-80 95 % of control | dose: 400.0 mg/kg/injection, schedule: Q01DX001 (ip), vehicle: saline with Tween-80 104 % of control | [9] 102 % of control | [10] 98 % of control

Cc1ccc(C)n1CCn1c(C)ccc1C
inactive: [11] 91 % of control | [4] 88 % of control | [12] 94 % of control | [13] 93 % of control | [14] 91 % of control | [15] 96 % of control

CC(c1ccccc1)C(C#N)c1ccccc1 (configuration not stated)
inactive: [11] 97 % of control | [16] 97 % of control | [12] 98 % of control | [17] 92 % of control | [14] 88 % of control | [18] 89 % of control

COc1cc(N(CCCl)CCCl)ccc1C=Nc1ccc(-n2ccnc2)cc1
inactive: dose: 68.8 mg/kg/injection, schedule: Q04DX002 (ip), vehicle: Klucel (hydroxypropylcellulose) (HPC) 98 % of control | dose: 137.5 mg/kg/injection, schedule: Q04DX002 (ip), vehicle: Klucel (hydroxypropylcellulose) (HPC) 98 % of control | dose: 275.0 mg/kg/injection, schedule: Q04DX002 (ip), vehicle: Klucel (hydroxypropylcellulose) (HPC) 102 % of control

O=C(c1ccccc1)c1ccc(Oc2ccccc2)cc1
inactive: dose: 100.0 mg/kg/injection, schedule: Q04DX003 (ip), vehicle: gum acacia 91 % of control | dose: 200.0 mg/kg/injection, schedule: Q04DX003 (ip), vehicle: gum acacia 97 % of control | dose: 400.0 mg/kg/injection, schedule: Q04DX003 (ip), vehicle: gum acacia 91 % of control

O=c1cccccc1O.O=c1cccccc1O.O=c1cccccc1O.[Cr]
inactive: dose: 75.0 mg/kg/injection, schedule: Q04DX003 (ip), vehicle: saline 100 % of control | dose: 150.0 mg/kg/injection, schedule: Q04DX003 (ip), vehicle: saline 104 % of control | dose: 300.0 mg/kg/injection, schedule: Q04DX003 (ip), vehicle: saline 90 % of control

Cc1ccc(C(C)C)cc1OCO
inactive: dose: 20.0 mg/kg/injection, schedule: Q01DX Z (ip), vehicle: methylcellulose (MC) 98 % of control | dose: 30.0 mg/kg/injection, schedule: Q01DX Z (ip), vehicle: methylcellulose (MC) 105 % of control

CCCCCCCCCCCCCCCCCC(=O)OCC(COC(=O)CCCCCCCC(CO)CCCCCCCCC)OC(=O)CCCCCCCC(CO)CCCCCCCCC (configuration not stated)
inactive: [4] 101 % of control | [13] 101 % of control | [15] 101 % of control

O=C(O)CN=CC(O)C(O)C(O)C(O)CO (configuration not stated)
inactive: dose: 12.5 mg/kg/injection, schedule: Q04DX002 (ip), vehicle: saline 105 % of control | dose: 25.0 mg/kg/injection, schedule: Q04DX002 (ip), vehicle: saline 88 % of control | dose: 50.0 mg/kg/injection, schedule: Q04DX002 (ip), vehicle: saline 105 % of control | dose: 100.0 mg/kg/injection, schedule: Q04DX002 (ip), vehicle: saline 123 % of control | dose: 200.0 mg/kg/injection, schedule: Q04DX002 (ip), vehicle: saline 103 % of control | dose: 400.0 mg/kg/injection, schedule: Q04DX002 (ip), vehicle: saline 106 % of control

O=[N+]([O-])c1cc(/C=N\N=C\c2ccco2)ccc1Cl
inactive: dose: 5.0 mg/kg/injection, schedule: Q01DX001 (ip), vehicle: saline 100 % of control | dose: 10.0 mg/kg/injection, schedule: Q01DX001 (ip), vehicle: saline 98 % of control | dose: 20.0 mg/kg/injection, schedule: Q01DX001 (ip), vehicle: saline 96 % of control | dose: 40.0 mg/kg/injection, schedule: Q01DX001 (ip), vehicle: saline 88 % of control | dose: 80.0 mg/kg/injection, schedule: Q01DX001 (ip), vehicle: saline 88 % of control

CN(C)c1ccc(N=[N+]=[N-])cc1
inactive: dose: 100.0 mg/kg/injection, schedule: Q04DX002 (ip), vehicle: saline with Tween-80 98 % of control | dose: 200.0 mg/kg/injection, schedule: Q04DX002 (ip), vehicle: saline with Tween-80 95 % of control | [5] 98 % of control

Clc1ccc(N/N=C(\Oc2ccccc2)c2ccccc2)cc1
inactive: [7] 104 % of control | [10] 98 % of control

CN(C)c1ccc2c(c1)/C(=N/O)c1ccccc1-2
inactive: dose: 100.0 mg/kg/injection, schedule: Q01DX001 (ip), vehicle: carboxymethylcellulose (CMC) 103 % of control | dose: 200.0 mg/kg/injection, schedule: Q01DX001 (ip), vehicle: carboxymethylcellulose (CMC) 105 % of control | dose: 400.0 mg/kg/injection, schedule: Q01DX001 (ip), vehicle: carboxymethylcellulose (CMC) 100 % of control

COC(=O)c1cc(NC(=O)CC(=O)c2cccc(N)c2)cc(C(=O)OC)c1
inactive: [16] 104 % of control | [17] 96 % of control | [18] 94 % of control

NNC(=O)CCC(=O)NN
inactive: [6] 100 % of control | [8] 99 % of control | [9] 100 % of control

CCCC(=O)OCC(=O)c1ccc(-c2ccccc2)cc1
inactive: [1] 96 % of control | [2] 94 % of control | [3] 94 % of control

Cc1ccc(C2CCCN2C)cc1 (configuration not stated)
inactive: dose: 25.0 mg/kg/injection, schedule: Q04DX003 (ip), vehicle: acetone 96 % of control | dose: 50.0 mg/kg/injection, schedule: Q04DX003 (ip), vehicle: acetone 94 % of control | dose: 100.0 mg/kg/injection, schedule: Q01DX001 (ip), vehicle: acetone 88 % of control | dose: 100.0 mg/kg/injection, schedule: Q04DX003 (ip), vehicle: acetone 99 % of control
